# Reference: patent publication US20250042968A1, “EPHRIN LIGAND MIMETIC PEPTIDES FOR THE TREATMENT OF NEURODEGENERATIVE DISEASES” (University of Miami, priority 2022, published 2025)
# “Also recorded” adds a separate entry of the source.
# What was measured:
# RhoA = assay: Western blot of RhoA in mRGCs; type: cell-based, mouse; details: 500 nM
# Procedure: (§1) On day 4, cells were treated with pre-clustered recombinant mouse EfnA5-His ligand [(+) Control, using anti-His_Tag antibody for 30 minutes] for 2 hours. Cells were then lysed in RIPA buffer containing protease and phosphatase inhibitor cocktails and maintained on ice. Protein was quantified using a BCA assay, and 10 μg of total protein was run on a TGX stain-free Any kD gel (BioRad) and transferred using the trans-blot turbo system (BioRad). Following transfer and blocking in 5% nonfat milk for 1 h, blots were probed with antibodies against RhoA, phosphorylated Rac1, ARHGEF15, Ephexin-1, or beta-actin as an endogenous loading control overnight at 4° C. Blots were then washed 3×5 min in PBS-T and incubated in the appropriate HRP-conjugated secondary antibody for 2 h at room temperature. Blots were imaged using chemiluminescent ECL substrate (Pierce) on a BioRad ChemiDoc MP imaging system and software.
# Ephexin-1 = assay: Western blot of phosphorylated Ephexin-1 in mRGCs; type: cell-based, mouse; details: 500 nM
# Procedure: as §1
# EphB2 = biological target: T1, EphB2 (Mus musculus, UniProt P54763); assay: Western blot of EphB2 expression in isolated mouse RGCs; type: cell-based; details: 1 μM, 4 days
# T1 construct: endogenous in cells; host or cells: primary mouse retinal ganglion cells
# T1 sequence (P54763 19-986): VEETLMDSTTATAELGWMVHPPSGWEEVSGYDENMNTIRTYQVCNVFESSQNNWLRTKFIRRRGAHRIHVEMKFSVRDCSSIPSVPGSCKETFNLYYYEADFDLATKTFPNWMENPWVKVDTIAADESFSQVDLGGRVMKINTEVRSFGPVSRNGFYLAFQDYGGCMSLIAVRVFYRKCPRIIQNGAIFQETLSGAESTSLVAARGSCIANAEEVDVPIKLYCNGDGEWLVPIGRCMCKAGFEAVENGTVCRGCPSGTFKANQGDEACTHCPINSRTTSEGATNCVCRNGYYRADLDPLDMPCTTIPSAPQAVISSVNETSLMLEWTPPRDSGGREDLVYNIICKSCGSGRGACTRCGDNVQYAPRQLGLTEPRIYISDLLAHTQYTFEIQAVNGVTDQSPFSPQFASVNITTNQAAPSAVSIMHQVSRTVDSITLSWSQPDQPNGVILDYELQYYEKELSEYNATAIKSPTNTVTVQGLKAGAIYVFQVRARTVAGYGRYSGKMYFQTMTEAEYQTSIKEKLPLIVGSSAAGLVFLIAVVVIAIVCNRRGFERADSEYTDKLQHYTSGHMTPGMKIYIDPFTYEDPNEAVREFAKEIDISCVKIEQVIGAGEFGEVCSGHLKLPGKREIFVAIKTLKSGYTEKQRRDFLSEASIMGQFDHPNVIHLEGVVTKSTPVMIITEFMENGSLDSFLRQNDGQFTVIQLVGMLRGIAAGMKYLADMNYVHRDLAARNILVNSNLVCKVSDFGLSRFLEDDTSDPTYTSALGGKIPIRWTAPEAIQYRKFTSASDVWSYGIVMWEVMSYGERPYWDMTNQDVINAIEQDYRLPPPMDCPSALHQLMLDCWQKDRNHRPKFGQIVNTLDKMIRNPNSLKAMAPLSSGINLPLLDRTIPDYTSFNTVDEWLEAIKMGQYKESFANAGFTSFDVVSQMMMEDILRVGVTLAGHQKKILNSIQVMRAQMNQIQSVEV
# Description: In order to assess the effect of xEFN peptide supplementation on Eph-receptor modulation, various in vitro assays were employed on isolated mouse RGCs. […] Similarly, xEFN_RBD1, and 3 inhibited the phosphorylation of Rac1 by pre-clustered ephirnA5 ligand stimulation. […] TUBB3 is a marker specific for neuronal microtubules and functions as a neuronal-specific marker.
# [1] = system: RGCs and optic nerve axons after optic nerve crush (ONC); assay: Mouse model of optic nerve crush (ONC), intravitreal xEFN peptides; type: in vivo; details: for RGC pool rescue / survival over PBS-treated controls: intravitreal, 4 weeks after injury; for regenerating axons compared to controls: starting at 100 μm past the injury site and throughout the analysis window
# Procedure: Antagonizing forward Eph signaling has been proven beneficial in a number of CNS disorders (Neurogastroenterol Motil. 2020:e13782; Acta Neuropathol Commun. 2018; 6(1):111; Proc Natl Acad Sci USA. 2014 Jul. 8; 111(27):9959-64; Eur J Neurosci. 2014 Oct; 40(7):3021-31; Neuroscience. 2013 Jun. 25; 241:89-99). The use of xEFN peptides as multi-Eph receptor antagonists was evaluated in treating retinal degeneration induced by optic nerve crush (ONC). The ONC model is the most commonly used model for the study of glaucoma and other optic neuropathies. All animal experiments were performed in compliance with the National Institutes of Health (Bethesda, MD, USA) Guide for the Care and Use of Laboratory Animals and the ARVO Statement for the Use of Animals in Ophthalmic and Vision Research. Animal protocols were reviewed and approved by the Institutional Animal Care and Use Committee of the University of Miami. […] With the use of jeweler's forceps (Dumont No. 5; tip dimension, 0.1×0.06 mm), the optic nerve is then crushed for 10 seconds at a location 2 mm distal from its insertion point into the globe. […] […]. At 4 weeks post-injury, animals were euthanized and enucleated for extraction of the retinas and optic nerves. Retinas were stained by immunohistochemistry for TUBB3 and RGCs were manually counted in each animal. Optic nerves were placed into tissue clearing solution for 1 week and then imaged for the CTB-647 label as whole mounts using a Leica SP8 Laser Scanning Confocal microscope (Leica Microsystems). Axonal projections were quantified at 100 μm intervals along the optic nerve track for up to 2 mm past the crush site using the fluorometric intensity measurement and analysis tool in the Leica LAS X microscopy suite software package, using the contralateral nerve (not CTB-injected) as a background reading for 647 nm fluorometric intensity in each sample.
sequence,measurement,setting,value
FTIKFQEFSPNLWGL [xEFN_RBD3],expression of the GTPase RhoA,RhoA,downregulates
same,phosphorylation of Ephexin-1,Ephexin-1,decrease
same,expression of EphB2 (western blot),EphB2,reduced expression; also recorded: effectively decreased expression
same,RGC survival,"[1]; 6 μg intravitreal twice (immediately after ONC and 7 days after), 4 weeks, compared to uninjured contralateral retina",44.17+/−2.39%
same,axonal projections detected distal to the crush site,"[1]; CTB labeled axons, 4 weeks post-ONC, analysis region 2000 μm",≥ 2000 μm
same,RGC pool rescue / survival over PBS-treated controls,[1],significant rescue
same,RGC pool rescue / survival over PBS-treated controls,[1]; listed as xEFN_EBD3,significant RGC survival
same,regenerating axons compared to controls,[1],significant increase
same,regenerating axons compared to controls,[1]; listed as xEFN_EBD3,axonal regeneration
